Source: patent US8987320B2, “Solid salt forms of a pyrrole substituted 2-indolinone” (Zoetis LLC, priority 2005, dated 2015)
Converted amounts (≈) assume the structure as drawn.

Legend:
[1] = Relative physical stability of Compound I phosphate polymorphs standing in solvent; assay type: physicochemical; conditions: among non-solvated polymorphs, in contact with solvent
Procedure: Such concentrated solutions were prepared by dissolving Compound I free base in about 1 M phosphoric acid. For example, about 70 mg of Compound I free base could be dissolved in 1 mL of 1 M phosphoric acid. However, the amount of Compound I free base and phosphoric acid used depended on the desired concentration and batch size of the solution. In the example in which the precipitate was vacuum filtered immediately after precipitation, about 1 mL of the desired solution was then dripped into about 10 mL of ten anti-solvents to precipitate the salt crystals out. These solvents were water plus acetonitrile (ANC), ethanol, methanol, acetone, acetonitrile, THF, ethyl acetate, hexane, methylene chloride (CH2Cl2), and isopropyl alcohol (IPA). In the example in which the precipitate was vacuum filtered after standing overnight or for three days, the additional solvents of methyl ethyl ketone (MEK) and dioxane were used. Some organic solvents, e.g., ethyl acetate, hexane, CH2C12, are not miscible with water and two layers of solvents were observed. […] In those cases, about 1 mL of methanol was added as a bridging solvent, to increase the miscibility between the two layers. Methanol appeared to work well to increase the miscibility because colorless organic layer became yellow as soon as methanol was added. […] The powder was then analyzed. […]

[2] = Estimation of solubility in various solvents by step-wise solvent addition; assay type: physicochemical; conditions: 23 °C, organic solvent or mixture, thermodynamic from solid, 23° C., read-out: Estimated solubility
Procedure: Samples of 1-2 mg of Compound I phosphate (lot 35282-CS-51) were transferred to 10 mL glass vials (tared) and were weighed (accurate to 0.1 mg). Solvents were added to the vials (one solvent to each vial) in a step-wise fashion, with 0.5 mL of solvent added at each step. Solvents used were buffer (pH=2), buffer (pH=5), water, methanol, tetrahydrofuran (THF), acetonitrile, and acetone. After each addition, the vial was capped and shaken. The dissolution of solid was visually observed. If no obvious dissolution was observed, more solvent was added immediately. If dissolution was apparent, the vial was left on the bench for at least 30 minutes before the next addition of solvent. This step was repeated until no crystals were visible against a black and a white background. The solubility was then bracketed by dividing the weight of the compound by the final volume and the volume before the last addition. If a solid remained after the addition of 10 mL of solvent, the solubility was expressed as less than the weight divided by the final volume. If the solid was completely dissolved after the first addition of solvent, the solubility was expressed as greater than the weight divided by the solvent volume. All experiments were conducted at room temperature.

[3] = Dynamic moisture sorption gravimetry (DMSG) of salts of Compound I; assay type: physicochemical
Procedure: Dynamic Moisture Sorption Gravimetry (DMSG).
DMSG isotherm was collected on a temperature controlled atmospheric microbalance. Approximately 10 mg samples were placed in the sample pan of the balance. The humidity was sequentially varied from room relative humidity (RH) to 0% RH and was then increased to 90% RH followed by a decrease of RH to 0% again in 3% RH steps. The mass was then measured every two minutes. The RH was stepped to the next target value when change of the sample mass was less than 0.5 μg in 10 min. The Visual Basic program dmsgscn2.exe was used to control the data collection and export the information to an Excel spreadsheet.

[4] = tested on: KIT; conditions: in vitro, cited from earlier work
[5] = tested on: canine MCTs; conditions: dog, in vivo; cited from earlier work
[6] = parameters: species or system rodent; conditions: in vivo
Procedure: Based on preclinical work in rodent models, the therapeutic range of Compound I for target inhibition was considered to be 50-100 ng/ml for 12 h of a 24-h dosing period. […] In one animal, the plasma concentration of Compound I phosphate was outside the range of the other samples (0.3 ng/ml).

[7] = Solubility of Compound I in pH 6 phosphate buffer; assay type: physicochemical; conditions: aqueous buffer; pH 6 phosphate buffer at 25° C.
Procedure: Compound I readily crystallizes. Its solubility is about 10 μg/mL in pH 6 phosphate buffer at 25° C. When the compound was synthesized, very fine particles precipitated out of solution during the last step of synthesis. Subsequent isolation of these fine particles by filtration was slow, and a hard cake resulted after filtration. There is a need for a salt of Compound I which has physical stability and desirable physical properties.

SMILES: Cc1[nH]c(/C=C2\C(=O)Nc3ccc(F)cc32)c(C)c1C(=O)NCCN1CCCC1 [Form I]
- relative stability of the solid phase [1]: most stable solid phase

SMILES: Cc1[nH]c(/C=C2\C(=O)Nc3ccc(F)cc32)c(C)c1C(=O)NCCN1CCCC1 [Compound I free base (polymorph Form A), 5-[5-fluoro-2-oxo-1,2-dihydro-indol-(3Z)-ylidenemethyl]-2,4-dimethyl-1H-pyrrole-3-carboxylic acid (2-pyrrolidin-1-yl-ethyl)-amide]
- solubility ([2]; acetone, Acetone): < 160 µg/mL
- solubility ([2]; acetonitrile, Acetonitrile): < 80 µg/mL
- solubility ([2]; methanol, methanol): 210 to 310 µg/mL (≈ 530 to 782 µM)
- solubility ([2]; tetrahydrofuran (THF), THF): 320 to 400 µg/mL (≈ 807 to 1010 µM)

SMILES: Cc1[nH]c(/C=C2\C(=O)Nc3ccc(F)cc32)c(C)c1C(=O)NCCN1CCCC1.O=C(O)CC(O)(CC(=O)O)C(=O)O [Compound I citrate]
- % water at 80% RH [3]: ~3.8%
- water at 80 percent humidity ([3]; 80 percent relative humidity): about 3.8%

SMILES: Cc1[nH]c(/C=C2\C(=O)Nc3ccc(F)cc32)c(C)c1C(=O)NCCN1CCCC1 [Compound I, 5-[5-fluoro-2-oxo-1,2-dihydro-indol-(3Z)-ylidenemethyl]-2,4-dimethyl-1H-pyrrole-3-carboxylic acid (2-pyrrolidin-1-yl-ethyl)-amide]
- potency of blocking phosphorylation of wild-type vs ITD mutant KIT ([4]; cellular assays): comparable potency
- effect on malignant mast cell lines expressing various forms of mutant KIT [4]: inhibit KIT phosphorylation, arrest cell proliferation, and induce cell cycle arrest and apoptosis
- canine MCTs with durable objective responses (partial and complete responses) [5]: 11 of 22 canine MCTs
- % water at 80% RH [3]: ~1%
- therapeutic range for target inhibition (plasma) [6]: 50 to 100 ng/mL
- solubility [7]: ~10 µg/mL (≈ 25.2 µM)
